Source: PubChem BioAssay (NCI)
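A five-concentration, 48-hour dose response in 96-well plates underlies each endpoint, interpolated linearly between surrounding concentrations. GI50 is the concentration that inhibits growth by half. TGI is the concentration that stops growth completely.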

Tests used:
Assay in all cases: NCI anticancer screen, dose series, 48 h
ACHN renal = test system: ACHN renal
CAKI-1 renal = test system: CAKI-1 renal
HCT-15 colon = test system: HCT-15 colon
MOLT-4 leukemia = test system: MOLT-4 leukemia
OVCAR-5 ovarian = test system: OVCAR-5 ovarian
RPMI-8226 leukemia = test system: RPMI-8226 leukemia
SF-295 CNS = test system: SF-295 CNS
SK-MEL-2 melanoma = test system: SK-MEL-2 melanoma
SR leukemia = test system: SR leukemia
UO-31 renal = test system: UO-31 renal

Compound	GI50 (ACHN renal) [µM]	TGI (ACHN renal) [µM]	GI50 (CAKI-1 renal) [µM]	TGI (CAKI-1 renal) [µM]	GI50 (HCT-15 colon) [µM]	TGI (HCT-15 colon) [µM]	GI50 (MOLT-4 leukemia) [µM]	TGI (MOLT-4 leukemia) [µM]	GI50 (OVCAR-5 ovarian) [µM]	TGI (OVCAR-5 ovarian) [µM]	GI50 (RPMI-8226 leukemia) [µM]	TGI (RPMI-8226 leukemia) [µM]	GI50 (SF-295 CNS) [µM]	TGI (SF-295 CNS) [µM]	GI50 (SK-MEL-2 melanoma) [µM]	TGI (SK-MEL-2 melanoma) [µM]	GI50 (SR leukemia) [µM]	TGI (SR leukemia) [µM]	GI50 (UO-31 renal) [µM]	TGI (UO-31 renal) [µM]
[2H]C([2H])([2H])NC(=O)c1nnc(NC(=O)C2CC2)cc1Nc1cccc(-c2ncn(C)n2)c1OC	5.53	> 100	4.52	71.6	15.5	> 100	0.934	> 100	> 100	> 100	14.2	> 100	53.4	> 100	10.6	83.8	16.9	> 100	5.93	60.4
COc1ccc(-c2cc(=O)n(-c3nc4ccccc4[nH]3)[nH]2)cc1OC	5.72	> 100	4.79	> 100	3.7	> 100	0.261	0.648	28.2	> 100	4.61	41.3	1.3	4.82	4.77	23.6	3.85	> 100	3.2	18.6
C=CC(=O)N1CCC(c2ccc(C(N)=O)c(-c3ccc(Oc4ccccc4)cc3)n2)CC1	25.3	> 100	15.8	> 100	25.2	> 100	27.3	> 100	> 100	> 100	20.4	73.7	27.3	> 100	27.1	> 100	28	> 100	12.9	> 100
COc1ccc2c(c1)nc(NNC(=O)c1cnccn1)c1cccn12	0.0906	1.4	0.659	4.81	0.0631	43	0.159	> 85.5	0.962	5.11	0.435	4.51	0.175	1.76	0.697	3.88	0.24	> 41.3	0.0848	1.51
CN(C)C(=O)Nc1nc2cc(Cl)c(Cl)cc2[nH]1	3.11	> 100	0.525	> 23.5	0.546	> 100	1.01	> 70.4	19.8	> 100	1.37	> 100	0.603	39.1	4.55	> 49.1	0.222	–	5.53	> 100
